These results are taken from patent US12570685B2, “2-methoxyestradiol derivatives and medical uses thereof” (INSTITUT PASTEUR KOREA, priority 2019, dated 2026).

For this experiment, the system named is HUVECs. Description: Radiation-induced EndMT / stress fiber phenomic screening in HUVECs using the HCS system. The experiment is classed as cell-based, human. The note with it: 48 hours, compared to IR (control) treated group; for Stress Fiber Pre-: HUVECs pre-treated 1 hour before radiation; for Stress Fiber Pre- / Stress Fiber Post-: Phalloidin; for Stress Fiber Post-: HUVECs treated after 10 Gy irradiation (3 hours). The procedure:
We established a phenomic screening platform to measure radiation-induced stress fibers and optimized the conditions for high-throughput screening using HUVEC cells to develop compounds targeting RIPF. […] 2-ME derivatives were prepared and their anti-fibrotic activities were tested in vitro [Table 3] and in vivo mouse models [FIGS. 1 and 2]. […] In this test, HUVECs were pre-treated with 2-ME derivatives at 1 hour before radiation and irradiated with 10 Gy. After 48 hours, HUVECs stained with Phalloidin and Hoechst to assess morphological changes Collagen type 1 (BD Collagen I, 354236, Thermo Fisher Scientific) was diluted in 70% ethanol, and then the collagen solution (400 μg/ml) was dispensed into each 384-well plate (6007550, Perkin Elmer, MA, US). After a 1-hour incubation at room temperature, the wells were rinsed twice with Dulbecco's phosphate-buffered saline. HUVECs were seeded at a density of 7×10^2 cells per well onto collagen-coated, 384-well plates and allowed to attach in complete growth media. Cells were then exposed to 10 Gy radiation at room temperature. After irradiation, the cells were incubated for an additional 3 hours. The compounds were tested at a final concentration of 10 μM in 0.5% dimethyl sulfoxide (DMSO; v/v) using an automated liquid handling system (Hummingbird, Analytik Jena, Jena, DE). After the 48-hour treatment, cells were fixed with 4% paraformaldehyde (w/v). The expression of actin filament was determined by incubation with 488-Phalloidin (1:100, MOP-[…], Thermo Fisher Scientific) using direct immunofluorescence staining. The nuclei were stained using Hoechst 33342 (1:1000, MOP-H3570, Thermo Fisher Scientific) at room temperature. For assay validation, a control run was performed. The low control consisted of three 384-well plates that contained irradiated cells, and the high control consisted of three 384-well plates that contained non-irradiated cells. For detecting and visualizing filamentous actin (F-actin) and nuclei, images were collected using an automated high-content imaging system with a 20× magnifying objective (Operetta, PerkinElmer). The acquired images were analyzed using an in-house software tool and Harmony 3.5.1® high-content imaging (Harmony, PerkinElmer) for segmentation of cells.

As for `COc1cc2c(cc1OC(C)=O)CCC1C2CC[C@@]2(C)C1CC[C@@H]2O` (stereo partly shown) [compound 10], the “Stress Fiber Pre-” value (10 Gy) is reported as “O (there were stress fiber decreasing more than 20% compare to IR (control) treated group)”. Further, the “Stress Fiber Post-” value (10 μM) was “O (there were stress fiber decreasing more than 20% compare to IR (control) treated group)”. `CCC(=O)Oc1cc2c(cc1OC)C1CC[C@@]3(C)C(CC[C@@H]3O)C1CC2` (stereo partly shown) [compound 11]: the “Stress Fiber Pre-” value (10 Gy) is on record as “O (there were stress fiber decreasing more than 20% compare to IR (control) treated group)”. In addition, the “Stress Fiber Post-” value (10 μM) is given as “O (there were stress fiber decreasing more than 20% compare to IR (control) treated group)”. On to `COc1cc2c(cc1O)CCC1C2CC[C@]2(C)C(=O)C=CC12` (stereo partly shown) [compound 2], for which, for the setting “HUVECs, 10 Gy, 10 μM”, the Cell number entry is reported as “X (there were more than 10% changes in the cell number compare to IR (control) treated group)”. Take `COc1cc2c(cc1OC(C)=O)CCC1C2CC[C@@]2(C)C1CC[C@@H]2OC(C)=O` (stereo partly shown) [compound 5]: the “Stress Fiber Pre-” value (10 Gy) was “O (there were stress fiber decreasing more than 20% compare to IR (control) treated group)”. The same measure, in the same setting: next, `CCC(=O)Oc1cc2c(cc1OC)C1CC[C@@]3(C)C(CC[C@@H]3OC(=O)CC)C1CC2` (stereo partly shown) [compound 6]: “O (there were stress fiber decreasing more than 20% compare to IR (control) treated group)”.
